Experimental data: patent publication US12070505B2, “Targeted peptide-drug conjugates” (priority 2021, dated 2024)
Read-outs that look alike come from different tables or passages of the source.

Legend:
LLC-PK1 kidney cells = test: Cytotoxicity, MTS assay, normal kidney cells
Method: (§4) In Vitro Cytotoxicity Assay of Peptide-Drug Conjugates. The cytotoxicity of the compounds was determined by using human leukemia cell line (CCRF-CEM), human ovarian adenocarcinoma cells (SKOV-3) cells, kidney cell line (LLC-PK1), gastric adenocarcinoma cells (AGS), and heart/myocardium cells (H9C2) to evaluate the toxicity of the generated peptides according to a previously reported procedure (Rahman, A.; et al. Proc. Am. Assoc. Cancer Res. 26:2295-2299, 1985, which is incorporated herein by reference). In brief, CCRF-CEM cells were seeded at 50,000 cells in 0.1 mL per well in 98-well plates. In the case of other cell lines, the cells were seeded at 5,000 cells (0.1 mL per well in 96-well plates). The cells were seeded in medium (RPMI-1640 containing FBS (10%)), 24 h prior to the experiment. The compounds at different concentrations (10-50 μM) were added to each well in triplicate and incubated for 24 and 72 h at 37° C. in a humidified atmosphere of 5% CO2. Dox (5 μM) was used as a positive control, while water and cell culture medium were used as negative controls. The compounds were dissolved in water; water was used as a negative control to normalize the data. After the incubation period, MTS reagent (20 μL) was added to each well. The incubation was continued for 2 h. Cell viability was then determined by determination of the fluorescence intensity at 490 nm using a SpectraMax M2 microplate spectrophotometer.

[1] = Cytotoxicity, MTS assay, normal kidney cells; settings: pig, LLC-PK1 kidney cells
Method: as §4

SK-OV-3 cells = test: Cytotoxicity, MTS cell viability assay, SK-OV-3 (Example 1)
Method: (§5) In Vitro Cytotoxicity Assay of Peptide-Drug Conjugates. […] In brief, CCRF-CEM cells were seeded at 50,000 cells in 0.1 mL per well in 98-well plates. In the case of other cell lines, the cells were seeded at 5,000 cells (0.1 mL per well in 96-well plates). […] Dox (5 μM) was used as a positive control, while water and cell culture medium were used as negative controls. The compounds were dissolved in water; water was used as a negative control to normalize the data. After the incubation period, MTS reagent (20 μL) was added to each well. The incubation was continued for 2 h. Cell viability was then determined by determination of the fluorescence intensity at 490 nm using a SpectraMax M2 microplate spectrophotometer. The percentage of cell viability was then calculated using the following equation: [(OD value of cells treated with the compound)−(OD value of culture medium)]/[(OD value of control cells)−(OD value of culture medium)]×100% (FIGS. 6-9).

[2] = Cytotoxicity, MTS assay, normal heart muscle cells (Example 1); settings: rat, H9C2 heart/myocardium cells
Method: as §4

H9C2 cells = test: as above
Method: as §4

[3] = system: gastric adenocarcinoma cells (AGS); test: Cytotoxicity, MTS cell viability assay, AGS
Method: as §5

MES-SA/MX2 cells = test: LC50 by CCK-8 assay, Dox-resistant MES-SA/MX2; type: cell-based; settings: FIG. 10: after 72 h
Method: (§1) Dox-resistant Cell Lines. Acquired resistance to Dox was induced in wild-type triple-negative breast cancer cell line MDA-MB-231 (MDA-231WT) as described before (Aliabadi, H. M.; et al. J. Control. Release 172:219-228, 2013, which is incorporated herein by reference). Briefly, MDA-231WT cells were exposed to Dox at an initial concentration of 0.05 μg/mL for one week or three consecutive expansions (whichever came later). […] Resistance induction was confirmed via calculation of LC50 following a sigmoidal effect model explained elsewhere (Bousoik, E.; et al. Front. Oncol. 9:1070, 2019, which is incorporated herein by reference) and determination of P-glycoprotein (P-gp) expression.
The cytotoxicity of the peptide-Dox conjugate in resistant triple-negative breast cancer and uterine sarcoma cell lines (MDA-231R, MDA-231WT, and MES-SA/MX2) was evaluated by a Cell Counting 8 (CCK8) KIT. The peptide-Dox conjugate was added to the cells in triplicate with different concentrations (0-40 μM). […] After this incubation period, 10 μL of CCK8 reagent was added to each well, and plates were incubated at the same conditions for 2 h. The absorbance of each well was determined at 450 nm using the SpectraMAX M5 microplate reader. […]
Efficiency in Dox-Resistant Cells. […] The cell viability was determined after this incubation period using the CCK-8 assay, as explained above. […]

[4] = system: uterine sarcoma cells (MES-SA/MX2)
Method: as §5

CCRF-CEM cells = test: Cytotoxicity, MTS cell viability assay, CCRF-CEM
Method: as §5

MDA-231WT cells = test: LC50 by CCK-8 assay, wild-type cells; type: cell-based; settings: MDA-231WT (wild type), FIG. 10: after 72 h
Method: as §1
(§2) The cytotoxicity of the peptide-Dox conjugate in resistant triple-negative breast cancer and uterine sarcoma cell lines (MDA-231R, MDA-231WT, and MES-SA/MX2) was evaluated by a Cell Counting 8 (CCK8) KIT. The peptide-Dox conjugate was added to the cells in triplicate with different concentrations (0-40 μM). Cells were incubated at 37° C. and 5% CO2 for 24 h. After this incubation period, 10 μL of CCK8 reagent was added to each well, and plates were incubated at the same conditions for 2 h. The absorbance of each well was determined at 450 nm using the SpectraMAX M5 microplate reader. After subtracting the signal from blank wells that contain medium without cells in the plate with CCK-8 solution added, the results were normalized to cells treated with normal saline (considered as 100%)
(§3) Efficiency in Dox-Resistant Cells. In order to compare the cytotoxic effect of free and peptide-conjugated Dox in Dox-resistant cells, MDA-231WT (as a Dox-sensitive cell line as control) and MDA-231R and MES-SA/MX2 cells as Dox-resistant cells were exposed to a wide range of Dox (or Dox-equivalent for the peptide-conjugated drug) concentrations (0.05-40 μM). Cells were seeded in 96-well plates with approximately 50% confluency and were incubated for 24 h in 37° C. and 5% CO2. […] The cell viability was determined after this incubation period using the CCK-8 assay, as explained above. […]

MDA-231R cells = test: LC50 by CCK-8 assay, Dox-resistant MDA-231R; type: cell-based; settings: MDA-231R (Dox-resistant); FIG. 10: after 72 h
Method: as §1, §2, §3

[5] = Stability of [R5K]W7A-Dox in fetal bovine serum (HPLC); type: in vitro ADME; settings: 10% FBS, 37° C.
Method: Stability Studies. The stability of [R5K]W7A-Dox conjugate was evaluated using phosphate-buffered saline (PBS) and fetal bovine serum (FBS). FBS was purchased from Invitrogen and ATCC. FBS (20%) was incubated with [R5K]W7A-Dox (75 μL, 1 mM in water) at 37° C. followed by intermediate mixing. An aliquot of 75 μL of the mixture was taken out at different time intervals (5 min to 24 h) and diluted with water (75 μL). The mixture was analyzed by using analytical HPLC, detecting the wavelength of 490 nm. The area under the curve (AUC) was calculated and used to determine the percentage of released Dox and the remaining prodrug at a given time.

COc1cccc2c1C(=O)c1c(O)c3c(c(O)c1C2=O)C[C@@](O)(C(=O)COC(=O)CCCC(=O)NCCC(=O)N[C@@H](Cc1c[nH]c2ccccc12)C(=O)N[C@@H](Cc1c[nH]c2ccccc12)C(=O)N[C@@H](Cc1c[nH]c2ccccc12)C(=O)N[C@@H](Cc1c[nH]c2ccccc12)C(=O)N[C@@H](Cc1c[nH]c2ccccc12)C(=O)N[C@@H](Cc1c[nH]c2ccccc12)C(=O)N[C@@H](Cc1c[nH]c2ccccc12)C(=O)NCCCC[C@@H]1NC(=O)[C@H](CCCNC(=N)N)NC(=O)[C@H](CCCNC(=N)N)NC(=O)[C@H](CCCNC(=N)N)NC(=O)[C@H](CCCNC(=N)N)NC(=O)[C@H](CCCNC(=N)N)NC1=O)C[C@@H]3O[C@H]1C[C@H](N)[C@H](O)[C@H](C)O1 [[R5K]W7A-Dox]
cytotoxicity to normal kidney cells (LLC-PK1 kidney cells; LLC-PK1, 5-10 μM): 5-7%
cytotoxicity (LLC-PK1 kidney cells; LLC-PK1, as high as 10 μM, 24 h and 72 h): not cytotoxic
Cell Viability (%) after 24 h (LLC-PK1 kidney cells; normal kidney LLC-PK1, 5 μM): 88 ± 0%
Cell Viability (%) after 72 h (LLC-PK1 kidney cells; normal kidney LLC-PK1, 5 μM): 93 ± 6%
Cell Viability (%) after 72 h (LLC-PK1 kidney cells; normal kidney LLC-PK1, 10 μM): 95 ± 3%
viability at 24 h, 5 µM [1]: 88%
viability at 24 h, 25 µM [1]: 42%
viability at 24 h, 50 µM [1]: 33 ± 1%
viability at 72 h, 5 µM [1]: 93 ± 6%
viability at 72 h, 10 µM [1]: 95 ± 3%
viability at 72 h, 25 µM [1]: 94 ± 1%
viability at 72 h, 50 µM [1]: 33 ± 1%
Cell Viability (%) after 24 h (SK-OV-3 cells; 5 μM): 87 ± 6%
Cell Viability (%) after 72 h (SK-OV-3 cells; 5 μM): 71 ± 3%
reduction of cell survival/viability (SK-OV-3 cells; 5 μM, 24 h): 19%
reduction of cell survival/viability (SK-OV-3 cells; 5 μM, 72 h): 29%
Cell Viability (%) after 24 h (SK-OV-3 cells; 10 μM): 87 ± 0%
Cell Viability (%) after 72 h (SK-OV-3 cells; 10 μM): 61 ± 6%
reduction of cell viability (SK-OV-3 cells; 10 μM, 72 h): 39%
Cell Viability (%) after 24 h (SK-OV-3 cells; 25 μM): 76 ± 1%
Cell Viability (%) after 72 h (SK-OV-3 cells; 25 μM): 52 ± 3%
reduction of cell viability / cytotoxicity (SK-OV-3 cells; 25 μM, 72 h): 48%
viability at 24 h, 5 µM [2]: 100 ± 2%
viability at 24 h, 10 µM [2]: 101%
viability at 24 h, 25 µM [2]: 68%
viability at 72 h, 10 µM [2]: 105 ± 3%
viability at 72 h, 25 µM [2]: 37 ± 1%
viability at 96 h, 5 µM [2]: 115 ± 1%
viability at 96 h, 10 µM [2]: 91%
viability at 96 h, 25 µM [2]: 39%
cytotoxicity to heart cells (H9C2 cells; H9C2, 5-10 μM): < 9%
toxicity (H9C2 cells; H9C2, 5-10 μM, 24 h, 72 h, and 96 h): did not show any significant toxicity
Cell Viability (%) after 24 h (H9C2 cells; normal heart H9C2, 5 μM): 100 ± 2%
Cell Viability (%) after 24 h (H9C2 cells; normal heart H9C2, 10 μM): 101 ± 0%
Cell Viability (%) after 72 h (H9C2 cells; normal heart H9C2, 10 μM): 105 ± 3%
Cell Viability (%) after 24 h ([3]; 5 μM): 95 ± 0%
Cell Viability (%) after 72 h ([3]; 5 μM): 27 ± 6%
reduction of cell survival/viability ([3]; 5 μM, 72 h): 73%
Cell Viability (%) after 24 h ([3]; 10 μM): 104 ± 5%
Cell Viability (%) after 72 h ([3]; 10 μM): 13 ± 3%
Cell Viability (%) after 24 h ([3]; 25 μM): 71 ± 0%
Cell Viability (%) after 72 h ([3]; 25 μM): 10 ± 1%
Cell Viability (%) after 24 h ([3]; 50 μM): 32 ± 1%
Cell Viability (%) after 72 h ([3]; 50 μM): 11 ± 1%
cytotoxicity ([3]; 5 and 10 μM, 24 h): not significantly cytotoxic
reduction of cell viability ([3]; different concentrations, 72 h): 73-90%
CC50 (MES-SA/MX2 cells): 4300 nM
Cell Viability (%) after 72 h ([4]; 5 μM, listed as [R5K]W7-Dox): 97 ± 2%
Cell Viability (%) after 72 h ([4]; 5 μM, listed as [R5K]W7Dox): 113 ± 1%
Cell Viability (%) after 72 h ([4]; 10 μM): 89 ± 2%
Cell Viability (%) after 72 h ([4]; 25 μM): 23 ± 4%
reduction of cell viability ([4]; 25 μM, 72 h): ~80%
cytotoxicity ([4]; 5 and 10 μM, 72 h): 0-10%
Cell Viability (%) after 24 h (CCRF-CEM cells; 5 μM): 74 ± 0%
Cell Viability (%) after 72 h (CCRF-CEM cells; 5 μM): 16 ± 6%
reduction of cell survival/viability (CCRF-CEM cells; 5 μM, 72 h): 84%
Cell Viability (%) after 24 h (CCRF-CEM cells; 10 μM): 68 ± 0%
Cell Viability (%) after 72 h (CCRF-CEM cells; 10 μM): 13 ± 3%
Cell Viability (%) after 24 h (CCRF-CEM cells; 25 μM): 36 ± 0%
Cell Viability (%) after 72 h (CCRF-CEM cells; 25 μM): 15 ± 1%
reduction of cell viability (CCRF-CEM cells; 25 μM, 24 h): 64%
cytotoxicity (CCRF-CEM cells; at 5, 10, and 25 μM, 72 h): 84-87%
CC50 (MDA-231WT cells): 560 nM
CC50 (MDA-231WT cells; listed as Conjugated Dox): 660 nM
CC50 (MDA-231R cells): 2300 nM
Dox released ([5]; after 4 h): 55%
remaining at 24 h ([5]; bovine, 10% fetal bovine serum, after 24 h, read-out: peptide-Dox conjugate remained intact): 25%
